Data on 1 compound can be found in patent US20190274981A1, “OLEANOLIC ACID ENHANCES MESENCHYMAL STROMAL CELL OSTEOGENIC POTENTIAL BY INHIBITION OF NOTCH SIGNALING” (Board of Supervisors of Louisiana State University and …, priority 2018, published 2019).

One data set deals with MSC/HA pellet. Description: In vivo ectopic bone-formation assay. Conditions: MSCs with 20 μM OA, subcutaneous in nude mice, six weeks.
Another data set deals with NICD. As to the kind of experiment: Western blot of NICD. In kind it is cell-based, human. Conditions: OA treated MSCs, day 3. A general note: In western blotting, separated proteins are transferred to a membrane and probed.
A further data set concerns normal cells. As to conditions: cited from earlier work.
A further data set relates to Notch target gene Hes1. As to the kind of experiment: Real time PCR of Notch target gene Hes1. In kind it is cell-based, human. Conditions: OA treated MSCs, day 7, vs DMSO treated control. Here is the method:
(§1) Real time RT-PCR: cDNA was synthesized from 1 μg total RNA using the SuperScript III reverse transcriptase kit (Invitrogen) in a final volume of 20 μl. Primers were designed with the IDT SCI primer design tool (Integrated DNA Technologies, San Diego, Calif.). RT-PCR experiments were performed with a Bio-Rad C1000 thermal cycler (Bio-Rad, Hercules, Calif.), and real-time PCR experiments were performed with an ABI prism 7500 (Applied Biosystems, Grand Island, N.Y.) in triplicate. Sequence for each primer pair were: Hes1, forward primer 5′-[…]-3′, reverse primer 5′-[…]-3′; ALP, forward primer 5′-[…]-3′, reverse primer 5′-[…] […]-3′; Runx2, forward primer 5′-[…]-3′, reverse primer 5′-[…]-3′; Osteocalcin (OC), forward primer 5′-[…]-3′, reverse primer 5′-[…]-3′; Osteopontin (OPN), forward primer 5′-[…]-3′, reverse primer 5′-[…]-3′; Type I collagen (Col1a1), forward primer 5′-[…]-3′, reverse primer 5′-[…]-3′; β-actin, forward primer 5′-[…]-3′; reverse primer 5′-[…] […]-3′. Samples were analyzed in triplicate, and the raw data consisted of PCR cycle numbers required to reach a fluorescence threshold level. The relative expression level of target genes was normalized to (β-actin gene.

The subject of a further data set is Notch signaling. As to the kind of experiment: Notch responsive RBPJ-Luc luciferase assay. In kind it is cell-based, human. Conditions: MSCs, 0, 10 μM and 20 μM OA, 48 hours. The method, then:
Luciferase assay: 80% confluence MSCs were transfected with Notch responsive RBPJ-Luc and SV40-Renilla-Luc (Promega) in the presence of Lipofectamine 2000 (Invitrogen) followed by OA treatment. At 24 hours after transfection and treatment, lysates were analyzed with a Dual Luciferase Assay Kit (Promega).
The inventor has identified the RBPjk-dependent Notch pathway as an important inducer of MSC proliferation, and an inhibitor of MSC differentiation during mouse limb-bud and postnatal bone development. In this study, the inventor further tested whether Notch signaling is also involved in OA-mediated osteogenesis. To do so, MSCs were first transfected with the RBPjk-dependent NOTCH-responsive luciferase reporter, and then cultured in medium containing 0, 10 μM and 20 μM OA for 48 hours. […] Moreover, down-regulation of Notch target gene Hes1 expression was also observed in OA treated MSCs (FIG. 1E), which further confirmed the inhibitory effect of OA on Notch signaling.

The subject of data set [1] is MSCs. As to the kind of experiment: Lentivirus-mediated Notch activation (NICD1 overexpression) in OA treated MSCs. The class given is cell-based, human.
Data set [2] concerns MSCs. Description: Cell viability assay (MTT). In kind it is cell-based, human. Conditions: 12 hours. The method, then: (§2) Cell culture and treatment: The human MSCs were purchased from Lonza. Oleanolic acid was obtained from Sigma-Aldrich (Aldrich-5504). A 100 mM solution of OA was prepared in dimethyl sulfoxide (DMSO), and all test concentrations were prepared by diluting the stock solution in cell culture medium. […] After expansion, cells were exposed to media containing OA and/or BMP2 for certain days. […] At the end, cells were harvested at different time points for analyses as described below.
Cell viability assay: MSC viability was measured using MTT (3-(4, 5-dimethylthiazole-2-yl)-2, 5-diphenyl tetrazolium bromide) based in vitro toxicology assay kit (Sigma, St. Louis, Mo., USA). Briefly, cells were seeded in 96-well plates. After growing into 50-60% confluence, cells were exposed to various concentrations of OA for 12 hours, then the supernatant was discarded, and cells were treated with 0.5 mg/ml MTT staining solution for another four hours. After incubation, the supernatant was removed and 50 μl of solubilization buffer provided by the Sigma kit with 0.5% DMSO was added. DMSO was added to ensure total solubility of the formazan crystals. Plates were shaken for two minutes, and the absorbance recorded at 590 nm on an automated microtiter plate reader. The percent viability was expressed as a percentage of that in the vehicle control (with subtraction of background absorbance).

A further data set has as its system phospho-smad1/5/8. As to the kind of experiment: RT-PCR and western blot of phospho-smad1/5/8. The class given is cell-based, human. As to conditions: MSCs.
Data set [3] deals with MSCs. As to the kind of experiment: MSC osteogenic differentiation assay, real time RT-PCR of osteogenic markers. The class given is cell-based, human. Conditions: OA 10 and 20 μM, seven days, vs DMSO treated control MSCs. The method, then: as §2
MSC osteogenic differentiation assay: Osteogenic differentiation assays of MSCs were performed using the Osteogenic differentiation bulletKit® (Lonza). MSCs were cultured at 200,000 cells/well in 6-well plates to confluence. Stem cell growth media was then replaced with osteogenic media supplied with or without OA and BMP2. After seven days of culture, alkaline phosphatase (ALP) staining, RNA, and protein isolation were performed as described in our published protocols.
as §1
A general note: In qPCR the cycle at which signal appears reflects the starting amount.

Data set [4] deals with MSCs. As to the kind of experiment: MSC osteogenic differentiation assay, ALP staining. The class given is cell-based, human. Here is the method:
Cell culture and treatment: The human MSCs were purchased from Lonza. Oleanolic acid was obtained from Sigma-Aldrich (Aldrich-5504). A 100 mM solution of OA was prepared in dimethyl sulfoxide (DMSO), and all test concentrations were prepared by diluting the stock solution in cell culture medium. […] At the end, cells were harvested at different time points for analyses as described below.
MSC osteogenic differentiation assay: Osteogenic differentiation assays of MSCs were performed using the Osteogenic differentiation bulletKit® (Lonza). MSCs were cultured at 200,000 cells/well in 6-well plates to confluence. […] After seven days of culture, alkaline phosphatase (ALP) staining, RNA, and protein isolation were performed as described in our published protocols.

Entries after “also recorded” stand apart in the source; their conditions may differ.

Description for MSC/HA pellet: In vivo ectopic bone-formation assay: All animal studies were reviewed and approved by the Animal Ethics Committee of Louisiana State University Health Sciences Center. 1.0×10^6 total MSCs were re-suspended in 80 μl of MSC growth media containing 20 μM OA and gently mixed with 50 mg of hydroxyapatite (HA) powder (Himed). The composites were then centrifuged for two minutes at 200 rpm to form a MSC/HA pellet. For ectopic bone formation surgery, ten 8-week-old NOD.CB17^−Prkdescid/J mice (Charles River) (up to 2 implants for each animal) were anesthetized and the dorsal skin was cleaned with 70% ethanol. Two incisions of ˜1 cm in length were performed on the opposite flanks of the back, and then a pocket was formed by blunt dissection. Finally the MSC/HA pellets were implanted. Six weeks post-surgery, transplanted BMSC/HA pellets were harvested for gross observation and Masson's trichrome staining. […] All animal work was performed in accordance with institution approved guidelines.
MSCs were first dissolved in PBS containing 20 μM OA, then mixed with HA ceramic powder, and centrifuged into MSC/HA pellets prior to subcutaneous transplantation into nude mice. After six weeks of growth and differentiation, the pellets were harvested for gross observation, Masson's trichrome and immunohistochemistry staining (FIG. 4A).
Description for phospho-smad1/5/8: Real time RT-PCR: cDNA was synthesized from 1 μg total RNA using the SuperScript III reverse transcriptase kit (Invitrogen) in a final volume of 20 μl. Primers were designed with the IDT SCI primer design tool (Integrated DNA Technologies, San Diego, Calif.). RT-PCR experiments were performed with a Bio-Rad C1000 thermal cycler (Bio-Rad, Hercules, Calif.), and real-time PCR experiments were performed with an ABI prism 7500 (Applied Biosystems, Grand Island, N.Y.) in triplicate. […] Samples were analyzed in triplicate, and the raw data consisted of PCR cycle numbers required to reach a fluorescence threshold level. The relative expression level of target genes was normalized to (β-actin gene.
Western blot analysis: MSCs cultured with or without OA and BMP2 treatment were lysed in RIPA buffer (10 mM Tris-HCI, 1 mM EDTA, 1 sodium dodecyl sulfate [SDS], 1% NP-40, 1:100 proteinase inhibitor cocktail, 50 mM β-glycerophosphate, 50 mM sodium fluoride). The samples were separated on a 10% SDS polyacrylamide gel and transferred to polyvinylidene difluoride (PVDF) membranes with a semi-dry transfer apparatus (Bio-Rad). The membranes were blotted with 5% dehydrated milk for two hours, and then, incubated with primary antibodies overnight. […]

In the case of `CC1(C)CC[C@]2(C(=O)O)CC[C@]3(C)C(=CC[C@@H]4[C@@]5(C)CC[C@H](O)C(C)(C)[C@@H]5CC[C@]43C)[C@@H]2C1` [OA, (3β)-3-hydroxyolean-12-en-28-oic acid], in the data set on MSC/HA pellet, the “increase of type I collagen bone matrix (blue) in the pellet area vs untreated MSCs” value is listed as “approximately 4 fold” and the “pellet area stained blue (type I collagen bone matrix, Masson's trichrome)” value is recorded as 30%. Further, the “expression of NICD (western blot)” value with NICD was “significantly reduced”. In the data set with normal cells, the “cytotoxicity to normal cells” value is listed as “no significant cytotoxicity”. In addition, the “Notch target gene Hes1 expression” value in the data set on Notch target gene Hes1 is “down-regulation”. Further, the Notch-responsive luciferase activity result in the data set with Notch signaling is given as “inhibited Notch-responsive luciferase activity dose dependently”. In addition, the “OA-induced ALP staining under overexpression of NICD1” value with MSCs [1] (NICD1 lentivirus infected MSCs, OA, day 7) is recorded as “totally blocked”. In addition, the “expression of ALP, Runx2 and Col1a1 in Notch activated MSCs with OA” value in the data set with MSCs [1] (NICD1 lentivirus, RT-PCR, day 7, vs control or OA treated MSCs) is listed as “significantly reduced”. The “cell death in cell viability assay” value with MSCs [2] (OA 10 μM) was “no cell death”. In addition, the “cell death in cell viability assay” value in the data set on MSCs [2] (OA 20 μM) is listed as “no cell death”. Also, the “cell death in cell viability assay” value in the data set with MSCs [2] (OA 30 μM) was “significant cell death”. Also, the “gene expression of p-smad1/5/8 (RT-PCR)” value with phospho-smad1/5/8 (day 7, OA 20 μM, BMP2 200 ng/ml) was “did not show any effects”. In the data set on phospho-smad1/5/8 (day 7, control vs OA treated), the “p-smad1/5/8 expression (western blot)” value is given as “no significant difference”. Further, in the data set on MSCs [3], the “ALP expression (early osteogenic marker)” value is reported as “enhanced expression”, the “Col1a1 expression (early osteogenic marker)” value is “enhanced expression”, the “OC expression (later osteogenic marker)” value is “remained unchanged” and the “OPN expression (later osteogenic marker)” value was “remained unchanged”. Moreover, the “Runx2 expression (early osteogenic marker)” value in the data set on MSCs [3] is reported as “enhanced expression”. The “ALP activity (ALP staining)” value with MSCs [4] (OA 20 μM and/or BMP2 200 ng/ml, seven days, osteogenic medium) is reported as “significant increase; also recorded: relative weak ALP staining”. Further, the “ALP staining (MSC osteogenic differentiation)” value in the data set on MSCs [4] (OA 10 and 20 μM, seven days) is given as “dose dependent increase”. For the same compound, the osteogenic nodule formation entry in the data set on MSCs [4] (OA treated MSCs at day 7, maximal staining at 20 μM) was “increase in osteogenic nodule formation”.
